Results published in ChEMBL document CHEMBL4630905 (2021).
The source made the active and inactive calls. The rule behind the calls is not given here.

Columns and labels:
[1] = target: Muscarinic acetylcholine receptor M2 (Homo sapiens) (UniProt P08172); conditions: Compound concentration 10.0 uM
[2] = target: T1, Bromodomain-containing protein 2 (Homo sapiens, UniProt P25440); assay: BET mutant TR-FRET assay (BRD2 BD1)
[3] = tested on: THP-1; assay: Proliferation assay (THP-1 cells); assay type: functional, cell-based; conditions: Homo sapiens
[4] = target: Alpha-1A adrenergic receptor (Homo sapiens) (UniProt P35348); conditions: Compound concentration 10.0 uM
Sequence of Alpha-1A adrenergic receptor (Homo sapiens) (P35348 whole entry): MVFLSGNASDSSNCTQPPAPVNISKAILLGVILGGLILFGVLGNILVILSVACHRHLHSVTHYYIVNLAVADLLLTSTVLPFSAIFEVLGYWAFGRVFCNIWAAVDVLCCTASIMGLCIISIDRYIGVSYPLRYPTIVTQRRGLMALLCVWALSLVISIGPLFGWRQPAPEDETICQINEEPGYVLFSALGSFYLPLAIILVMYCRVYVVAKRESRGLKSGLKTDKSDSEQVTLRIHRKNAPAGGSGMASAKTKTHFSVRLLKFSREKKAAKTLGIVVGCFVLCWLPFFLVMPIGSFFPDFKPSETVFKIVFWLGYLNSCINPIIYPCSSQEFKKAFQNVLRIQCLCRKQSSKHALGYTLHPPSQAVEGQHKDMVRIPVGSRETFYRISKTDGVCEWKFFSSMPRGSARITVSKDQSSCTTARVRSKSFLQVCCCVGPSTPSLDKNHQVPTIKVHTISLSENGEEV

[5] = target: 5-hydroxytryptamine receptor 3A (Homo sapiens) (UniProt P46098); conditions: Compound concentration 10.0 uM
Sequence of 5-hydroxytryptamine receptor 3A (Homo sapiens) (P46098 whole entry): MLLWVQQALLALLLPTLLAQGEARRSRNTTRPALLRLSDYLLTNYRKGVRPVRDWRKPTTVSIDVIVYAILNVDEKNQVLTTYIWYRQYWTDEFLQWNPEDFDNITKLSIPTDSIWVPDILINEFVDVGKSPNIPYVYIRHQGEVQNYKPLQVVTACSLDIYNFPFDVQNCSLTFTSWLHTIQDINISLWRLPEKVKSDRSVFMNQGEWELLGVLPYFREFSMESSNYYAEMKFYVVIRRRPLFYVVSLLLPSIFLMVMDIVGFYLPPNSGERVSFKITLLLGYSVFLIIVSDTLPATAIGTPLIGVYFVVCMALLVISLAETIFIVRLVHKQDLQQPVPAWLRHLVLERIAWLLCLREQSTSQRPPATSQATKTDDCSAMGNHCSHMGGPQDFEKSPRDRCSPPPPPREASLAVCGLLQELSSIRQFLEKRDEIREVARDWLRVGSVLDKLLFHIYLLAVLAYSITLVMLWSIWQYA

[6] = target: 5-hydroxytryptamine receptor 5A (Homo sapiens) (UniProt P47898); conditions: Compound concentration 10.0 uM
[7] = target: Transcription intermediary factor 1-alpha (Homo sapiens, UniProt O15164); assay: TRIM24 (TIF1alpha) (PHD & BD) DiscoverX BROMOscan
[8] = target: Histamine H1 receptor (Homo sapiens) (UniProt P35367); conditions: Compound concentration 10.0 uM
[9] = target: T2, Bromodomain-containing protein 8 (Homo sapiens, UniProt Q9H0E9); assay: BRD8 (BD2) DiscoverX BROMOscan
[10] = target: Beta-3 adrenergic receptor (Homo sapiens) (UniProt P13945); conditions: Compound concentration 10.0 uM
Sequence of Beta-3 adrenergic receptor (Homo sapiens) (P13945 whole entry, looked up): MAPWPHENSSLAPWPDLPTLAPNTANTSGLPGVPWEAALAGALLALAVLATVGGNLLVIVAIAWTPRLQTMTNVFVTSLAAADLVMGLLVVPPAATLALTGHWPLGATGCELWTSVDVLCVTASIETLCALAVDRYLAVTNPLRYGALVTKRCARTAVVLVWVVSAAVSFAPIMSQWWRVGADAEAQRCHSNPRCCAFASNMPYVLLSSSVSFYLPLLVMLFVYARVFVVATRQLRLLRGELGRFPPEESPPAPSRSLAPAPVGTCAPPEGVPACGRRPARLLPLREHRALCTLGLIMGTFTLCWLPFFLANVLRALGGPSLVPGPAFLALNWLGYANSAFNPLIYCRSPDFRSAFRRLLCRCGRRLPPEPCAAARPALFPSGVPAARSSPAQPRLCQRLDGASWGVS

[11] = target: Sodium-dependent noradrenaline transporter (Homo sapiens) (UniProt P23975); conditions: Compound concentration 10.0 uM
Sequence of Sodium-dependent noradrenaline transporter (Homo sapiens) (P23975 whole entry): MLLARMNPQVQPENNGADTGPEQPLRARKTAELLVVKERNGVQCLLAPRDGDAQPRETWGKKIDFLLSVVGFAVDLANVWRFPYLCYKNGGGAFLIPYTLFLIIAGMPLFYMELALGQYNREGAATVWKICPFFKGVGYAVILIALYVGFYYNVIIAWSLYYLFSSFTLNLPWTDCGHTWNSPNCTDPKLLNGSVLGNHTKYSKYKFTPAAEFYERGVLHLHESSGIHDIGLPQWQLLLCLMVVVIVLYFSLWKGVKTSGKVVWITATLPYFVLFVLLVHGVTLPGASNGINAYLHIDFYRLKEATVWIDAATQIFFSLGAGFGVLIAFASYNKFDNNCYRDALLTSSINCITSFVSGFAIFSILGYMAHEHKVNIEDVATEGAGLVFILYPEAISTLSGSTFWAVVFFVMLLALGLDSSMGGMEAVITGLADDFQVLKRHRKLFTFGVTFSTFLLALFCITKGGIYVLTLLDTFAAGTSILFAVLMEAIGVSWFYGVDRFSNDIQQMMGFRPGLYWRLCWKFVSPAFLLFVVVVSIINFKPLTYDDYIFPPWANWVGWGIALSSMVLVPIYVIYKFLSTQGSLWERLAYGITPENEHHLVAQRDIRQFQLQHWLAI

[12] = target: 5-hydroxytryptamine receptor 1B (Homo sapiens) (UniProt P28222); conditions: Compound concentration 10.0 uM
Sequence of 5-hydroxytryptamine receptor 1B (Homo sapiens) (P28222 whole entry): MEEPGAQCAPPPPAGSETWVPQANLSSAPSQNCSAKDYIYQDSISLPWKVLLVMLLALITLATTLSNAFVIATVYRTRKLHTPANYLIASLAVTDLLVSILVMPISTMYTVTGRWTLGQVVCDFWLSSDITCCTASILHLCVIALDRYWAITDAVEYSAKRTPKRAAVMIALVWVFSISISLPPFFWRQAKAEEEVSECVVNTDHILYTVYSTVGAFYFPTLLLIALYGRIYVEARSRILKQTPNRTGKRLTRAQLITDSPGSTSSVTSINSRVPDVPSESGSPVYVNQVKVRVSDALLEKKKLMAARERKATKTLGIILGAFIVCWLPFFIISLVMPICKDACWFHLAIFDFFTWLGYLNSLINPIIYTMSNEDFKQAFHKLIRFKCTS

[13] = target: Muscarinic acetylcholine receptor M4 (Homo sapiens) (UniProt P08173); conditions: Compound concentration 10.0 uM
[14] = target: CREB-binding protein (Homo sapiens, UniProt Q92793); assay: CREBBP DiscoverX BROMOscan
[15] = tested on: HL-60; assay: Proliferation assay (HL60 cells); assay type: functional, cell-based; conditions: Homo sapiens
[16] = target: C-C motif chemokine 2 (Homo sapiens, UniProt P13500); assay: In vitro inhibition of MCP-1 in Lipopolysaccharide-stimulated human whole blood; assay type: tissue-based
Sequence of C-C motif chemokine 2 (P13500 whole entry): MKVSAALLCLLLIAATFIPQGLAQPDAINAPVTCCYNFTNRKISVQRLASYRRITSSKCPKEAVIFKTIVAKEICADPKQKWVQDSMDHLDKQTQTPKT

[17] = target: Histamine H4 receptor (Homo sapiens) (UniProt Q9H3N8); conditions: Compound concentration 10.0 uM
[18] = target: Alpha-1D adrenergic receptor (Homo sapiens) (UniProt P25100); conditions: Compound concentration 10.0 uM
[19] = tested on: MV4-11; assay: Proliferation assay (MV-4−11 cells); assay type: functional, cell-based; conditions: Homo sapiens
[20] = target: T2, Bromodomain-containing protein 8; assay: BRD8 (BD1) DiscoverX BROMOscan
[21] = target: Bromodomain-containing protein 7 (Homo sapiens, UniProt Q9NPI1); assay: BRD7 DiscoverX BROMOscan
[22] = target: Peregrin (Homo sapiens, UniProt P55201); assay: BRPF1 DiscoverX BROMOscan
[23] = target: T1, Bromodomain-containing protein 2; assay: BET mutant TR-FRET assay (BRD2 BD2)
[24] = target: T3, Bromodomain testis-specific protein (Homo sapiens, UniProt Q58F21); assay: BET mutant TR-FRET assay (BRDT BD2)
[25] = target: SWI/SNF-related matrix-associated actin-dependent regulator of chromatin subfamily A member 2 (Homo sapiens, UniProt P51531); assay: SMARCA2 DiscoverX BROMOscan
[26] = target: D(3) dopamine receptor (Homo sapiens) (UniProt P35462); conditions: Compound concentration 10.0 uM
[27] = target: D(1A) dopamine receptor (Homo sapiens) (UniProt P21728); conditions: Compound concentration 10.0 uM
[28] = target: Beta-1 adrenergic receptor (Homo sapiens) (UniProt P08588); conditions: Compound concentration 10.0 uM
[29] = target: T4, Bromodomain-containing protein 3 (Homo sapiens, UniProt Q15059); assay: BET mutant TR-FRET assay (BRD3 BD2)
T4 sequence (Q15059 2-726 limits assumed, change not shown): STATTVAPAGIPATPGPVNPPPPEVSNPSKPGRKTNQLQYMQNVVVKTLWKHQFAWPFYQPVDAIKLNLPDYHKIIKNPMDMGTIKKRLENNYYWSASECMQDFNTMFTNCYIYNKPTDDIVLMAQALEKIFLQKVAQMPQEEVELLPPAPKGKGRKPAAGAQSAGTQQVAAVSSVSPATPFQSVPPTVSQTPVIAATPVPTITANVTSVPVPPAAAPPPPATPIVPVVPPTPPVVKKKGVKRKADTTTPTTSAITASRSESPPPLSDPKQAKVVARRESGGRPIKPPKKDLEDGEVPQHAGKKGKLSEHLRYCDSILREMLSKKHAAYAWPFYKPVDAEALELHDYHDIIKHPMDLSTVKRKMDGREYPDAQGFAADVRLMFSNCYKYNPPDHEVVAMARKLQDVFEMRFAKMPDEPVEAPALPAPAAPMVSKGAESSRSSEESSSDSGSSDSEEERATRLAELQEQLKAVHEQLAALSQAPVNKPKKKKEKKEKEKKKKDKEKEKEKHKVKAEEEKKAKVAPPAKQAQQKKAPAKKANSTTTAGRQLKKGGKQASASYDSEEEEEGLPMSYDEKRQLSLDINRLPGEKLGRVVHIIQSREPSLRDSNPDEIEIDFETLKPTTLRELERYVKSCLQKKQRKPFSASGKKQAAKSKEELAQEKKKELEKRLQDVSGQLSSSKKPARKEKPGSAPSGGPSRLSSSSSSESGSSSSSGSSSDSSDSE

[30] = target: E3 ubiquitin-protein ligase TRIM33 (Homo sapiens, UniProt Q9UPN9); assay: TRIM33 (TIF1gamma) (PHD & BD) DiscoverX BROMOscan
[31] = target: Interleukin-6 (Homo sapiens, UniProt P05231); assay: In vitro inhibition of IL-6 in Lipopolysaccharide-stimulated human whole blood; assay type: tissue-based
[32] = target: Bromodomain and WD repeat-containing protein 1 (Homo sapiens, UniProt Q9NSI6); assay: WDR9 (BD2) DiscoverX BROMOscan
[33] = target: Histamine H3 receptor (Homo sapiens) (UniProt Q9Y5N1); conditions: Compound concentration 10.0 uM
[34] = target: Beta-2 adrenergic receptor (Homo sapiens) (UniProt P07550); conditions: Compound concentration 10.0 uM
Sequence of Beta-2 adrenergic receptor (Homo sapiens) (P07550 whole entry, looked up): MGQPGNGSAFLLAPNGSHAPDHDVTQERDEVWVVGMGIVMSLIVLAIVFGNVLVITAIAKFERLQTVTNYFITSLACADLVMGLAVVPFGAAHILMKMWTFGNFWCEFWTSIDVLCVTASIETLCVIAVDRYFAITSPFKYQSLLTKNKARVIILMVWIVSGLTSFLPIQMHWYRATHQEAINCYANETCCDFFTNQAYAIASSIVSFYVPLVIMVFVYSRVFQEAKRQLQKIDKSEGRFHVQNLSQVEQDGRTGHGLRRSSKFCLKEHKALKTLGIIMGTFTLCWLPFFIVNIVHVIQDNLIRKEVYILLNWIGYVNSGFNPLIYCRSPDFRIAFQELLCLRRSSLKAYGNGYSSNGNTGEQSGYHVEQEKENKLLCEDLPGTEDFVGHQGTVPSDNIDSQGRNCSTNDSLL

[35] = target: T4, Bromodomain-containing protein 3; assay: BET mutant TR-FRETassay (BRD3 BD1)
[36] = target: D(4) dopamine receptor (Homo sapiens) (UniProt P21917); conditions: Compound concentration 10.0 uM
[37] = target: D(1B) dopamine receptor (Homo sapiens) (UniProt P21918); conditions: Compound concentration 10.0 uM
[38] = target: Alpha-1B adrenergic receptor (Homo sapiens) (UniProt P35368); conditions: Compound concentration 10.0 uM
[39] = target: T3, Bromodomain testis-specific protein; assay: BET mutant TR-FRET assay (BRDT BD1)
[40] = target: Alpha-2C adrenergic receptor (Homo sapiens) (UniProt P18825); conditions: Compound concentration 10.0 uM
[41] = target: Chromatin remodeling regulator CECR2 (Homo sapiens, UniProt Q9BXF3); assay: CECR2 DiscoverX BROMOscan
[42] = target: 5-hydroxytryptamine receptor 1A (Homo sapiens) (UniProt P08908); conditions: Compound concentration 10.0 uM
[43] = target: 5-hydroxytryptamine receptor 1D (Homo sapiens) (UniProt P28221); conditions: Compound concentration 10.0 uM
Sequence of 5-hydroxytryptamine receptor 1D (Homo sapiens) (P28221 whole entry): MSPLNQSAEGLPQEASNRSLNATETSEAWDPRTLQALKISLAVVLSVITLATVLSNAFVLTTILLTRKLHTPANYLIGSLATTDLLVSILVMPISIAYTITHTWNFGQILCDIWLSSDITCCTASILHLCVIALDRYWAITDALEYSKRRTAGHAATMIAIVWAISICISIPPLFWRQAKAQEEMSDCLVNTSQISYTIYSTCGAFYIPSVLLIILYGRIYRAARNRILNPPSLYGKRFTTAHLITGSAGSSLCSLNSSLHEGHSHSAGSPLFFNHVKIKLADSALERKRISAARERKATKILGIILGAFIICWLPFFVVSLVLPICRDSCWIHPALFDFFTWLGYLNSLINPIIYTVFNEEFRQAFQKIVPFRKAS

[44] = target: Histone acetyltransferase KAT2B (Homo sapiens, UniProt Q92831); assay: PCAF DiscoverX BROMOscan
[45] = target: SWI/SNF-related matrix-associated actin-dependent regulator of chromatin subfamily A member 4 (Homo sapiens, UniProt P51532); assay: SMARCA4 DiscoverX BROMOscan
[46] = target: D(2) dopamine receptor (Homo sapiens) (UniProt P14416); conditions: Compound concentration 10.0 uM
[47] = target: Sodium-dependent serotonin transporter (Homo sapiens) (UniProt P31645); conditions: Compound concentration 10.0 uM
[48] = target: Sodium-dependent dopamine transporter (Homo sapiens) (UniProt Q01959); conditions: Compound concentration 10.0 uM
[49] = target: Muscarinic acetylcholine receptor M5 (Homo sapiens) (UniProt P08912); conditions: Compound concentration 10.0 uM
[50] = organism: Rattus norvegicus; conditions: Compound concentration 10.0 uM
[51] = target: Alpha-2A adrenergic receptor (Homo sapiens) (UniProt P08913); conditions: Compound concentration 10.0 uM
[52] = target: Histone acetyltransferase p300 (Homo sapiens, UniProt Q09472); assay: EP300 DiscoverX BROMOscan
[53] = target: 5-hydroxytryptamine receptor 2C (Homo sapiens) (UniProt P28335); conditions: Compound concentration 10.0 uM
[54] = target: Bromodomain adjacent to zinc finger domain protein 2B (Homo sapiens, UniProt Q9UIF8); assay: BAZ2B DiscoverX BROMOscan
[55] = target: Bromodomain and PHD finger-containing protein 3 (Homo sapiens, UniProt Q9ULD4); assay: BRPF3 DiscoverX BROMOscan
[56] = target: Nucleosome-remodeling factor subunit BPTF (Homo sapiens, UniProt Q12830); assay: FALZ DiscoverX BROMOscan
[57] = target: T3, Bromodomain testis-specific protein; assay: BRDT (1,2) DiscoverX BROMOscan
[58] = target: 5-hydroxytryptamine receptor 2A (Homo sapiens) (UniProt P28223); conditions: Compound concentration 10.0 uM
[59] = target: D(4) dopamine receptor (Homo sapiens, UniProt P21917); assay: GPCRScan assay: inhibition of D4; design: radioligand conc. used [nm] 0.6 – 1.7, parental cells Stable HEK
[60] = target: Muscarinic acetylcholine receptor M1 (Homo sapiens) (UniProt P11229); conditions: Compound concentration 10.0 uM
[61] = target: Protein polybromo-1 (Homo sapiens, UniProt Q86U86); assay: PBRM1 (BD2) DiscoverX BROMOscan
[62] = target: Histamine H2 receptor (Homo sapiens) (UniProt P25021); conditions: Compound concentration 10.0 uM
[63] = target: T5, GABA-A receptor; anion channel (Rattus norvegicus) (UniProt O09028+P15431+P18506+P18508+P19969+P20236+P23574+P23576+P28471+P28473+P30191+P62813+P63079+P63138+Q91ZM7+Q9ES14); conditions: Compound concentration 10.0 uM
[64] = target: Bromodomain-containing protein 1 (Homo sapiens, UniProt O95696); assay: BRD1 DiscoverX BROMOscan
[65] = target: Bromodomain-containing protein 9 (Homo sapiens, UniProt Q9H8M2); assay: BRD9 DiscoverX BROMOscan
[66] = target: Alpha-2B adrenergic receptor (Homo sapiens) (UniProt P18089); conditions: Compound concentration 10.0 uM
[67] = target: Sigma intracellular receptor 2 (Homo sapiens) (UniProt Q5BJF2); conditions: Compound concentration 10.0 uM
Sequence of Sigma intracellular receptor 2 (Homo sapiens) (Q5BJF2 whole entry): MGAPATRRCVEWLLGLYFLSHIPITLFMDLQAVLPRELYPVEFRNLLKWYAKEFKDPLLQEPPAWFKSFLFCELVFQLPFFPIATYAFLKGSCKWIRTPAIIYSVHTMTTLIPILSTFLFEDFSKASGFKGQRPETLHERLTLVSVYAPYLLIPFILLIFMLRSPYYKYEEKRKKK

[68] = target: Histone acetyltransferase KAT2A (Homo sapiens, UniProt Q92830); assay: GCN5L2 DiscoverX BROMOscan
[69] = target: Tumor necrosis factor (Homo sapiens, UniProt P01375); assay: In vitro inhibition of TNFalpha in Lipopolysaccharide-stimulated human whole blood; assay type: tissue-based
[70] = target: T5, GABA-A receptor; anion channel (Rattus norvegicus); conditions: Compound concentration 10.0 uM; remark: listed apart in the source
[71] = target: Muscarinic acetylcholine receptor M3 (Homo sapiens) (UniProt P20309); conditions: Compound concentration 10.0 uM
[72] = target: GABA-A receptor; anion channel; assay: GPCRScan assay: inhibition of GABAA/BZP; assay type: protein-complex assay, Rattus norvegicus; design: radioligand conc. used [nm] 0.6 – 4.0, parental cells brain tissue
[73] = target: 5-hydroxytryptamine receptor 1E (Homo sapiens) (UniProt P28566); conditions: Compound concentration 10.0 uM

T1 sequence (P25440 whole entry, looked up, change not shown): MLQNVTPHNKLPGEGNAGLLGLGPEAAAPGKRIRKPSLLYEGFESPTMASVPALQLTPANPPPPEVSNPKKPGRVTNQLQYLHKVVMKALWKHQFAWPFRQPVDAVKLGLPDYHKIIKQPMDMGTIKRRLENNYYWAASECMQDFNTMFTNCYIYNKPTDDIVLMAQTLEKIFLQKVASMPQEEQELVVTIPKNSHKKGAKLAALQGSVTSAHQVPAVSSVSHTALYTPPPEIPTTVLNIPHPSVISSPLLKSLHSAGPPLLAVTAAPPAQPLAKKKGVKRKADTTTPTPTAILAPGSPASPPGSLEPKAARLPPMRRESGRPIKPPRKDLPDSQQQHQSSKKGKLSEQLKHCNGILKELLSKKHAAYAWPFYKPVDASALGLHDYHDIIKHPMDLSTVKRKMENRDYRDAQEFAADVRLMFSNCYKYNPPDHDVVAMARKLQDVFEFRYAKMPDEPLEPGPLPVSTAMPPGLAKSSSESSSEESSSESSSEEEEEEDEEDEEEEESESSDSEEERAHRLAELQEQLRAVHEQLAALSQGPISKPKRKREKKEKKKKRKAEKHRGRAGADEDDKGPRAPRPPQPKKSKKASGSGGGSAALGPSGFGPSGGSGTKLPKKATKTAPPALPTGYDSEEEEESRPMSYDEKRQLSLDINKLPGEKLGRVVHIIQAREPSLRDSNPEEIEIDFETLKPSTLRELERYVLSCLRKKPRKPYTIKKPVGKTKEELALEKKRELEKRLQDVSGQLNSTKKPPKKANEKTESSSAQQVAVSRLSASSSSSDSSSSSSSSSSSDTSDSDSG

## Cc1cc2c(-c3ccco3)cnc(N[C@@H]3CCN(C)C[C@H]3C(=O)NC3CCCCC3)c2[nH]c1=O [GSK789]
[1]
  inhibition: 0.27%
[2]
  pIC50: 7
[3]
  IC50: 0.258 µM (active)
[4]
  inhibition: 25.2%
[5]
  inhibition: 31.8%
[6]
  inhibition: 24.1%
[7]
  Kd: 31.6 µM
[8]
  inhibition: -0.72%
[9]
  Kd: 31.6 µM
[10]
  inhibition: 13.8%
[11]
  inhibition: 30.5%
[12]
  inhibition: 3.37%
[13]
  inhibition: 17.1%
[14]
  Kd: 31.6 µM
[15]
  IC50: 0.39 µM (active)
[16]
  IC50: 0.67 µM (active)
[17]
  inhibition: 15.9%
[18]
  inhibition: 36.6%
[19]
  IC50: 0.125 µM (active)
[20]
  Kd: 31.6 µM
[21]
  Kd: 25.1 µM
[22]
  Kd: 31.6 µM
[23]
  pIC50: 4.7
[24]
  pIC50: 4.9
[25]
  Kd: 31.6 µM
[26]
  inhibition: 9.01%
[27]
  inhibition: 27.3%
[28]
  inhibition: 1.68%
[29]
  pIC50: 4.7
[30]
  Kd: 31.6 µM
[31]
  IC50: 3.55 µM (active)
[32]
  Kd: 31.6 µM
[33]
  inhibition: -9.93%
[34]
  inhibition: 19.8%
[35]
  pIC50: 6.8
[36]
  inhibition: 97.9%
[37]
  inhibition: 33.2%
[38]
  inhibition: 11.8%
[39]
  pIC50: 6.2
[40]
  inhibition: 8.58%
[41]
  Kd: 31.6 µM
[42]
  inhibition: 17.3%
[43]
  inhibition: -6.42%
[44]
  Kd: 31.6 µM
[45]
  Kd: 31.6 µM
[46]
  inhibition: -4.38%
[47]
  inhibition: 17.7%
[48]
  inhibition: 28.5%
[49]
  inhibition: 16.3%
[50]
  inhibition: 3.9%
[51]
  inhibition: -3.97%
[52]
  Kd: 25.1 µM
[53]
  inhibition: 14%
[54]
  Kd: 31.6 µM
[55]
  Kd: 31.6 µM
[56]
  Kd: 31.6 µM
[57]
  Kd: 0.1 µM
[58]
  inhibition: -5.01%
[59]; read-out: Ki
  Ki: 1.01 µM
[59]; read-out: pKi (converted)
  Ki: 1.01 µM
[60]
  inhibition: -9.42%
[61]
  Kd: 31.6 µM
[62]
  inhibition: -1.12%
[63]
  inhibition: 14.8%
[64]
  Kd: 31.6 µM
[65]
  Kd: 31.6 µM
[66]
  inhibition: -0.37%
[67]
  inhibition: 9.26%
[68]
  Kd: 31.6 µM
[69]
  IC50: 0.87 µM (active)
[70]
  inhibition: 24.7%

## Cc1cc2c(-c3ccco3)cnc(N[C@H]3CCN(C)C[C@@H]3C(=O)NC3CCCCC3)c2[nH]c1=O [GSK791]
[71]
  inhibition: 28.9%
[1]
  inhibition: 5.25%
[72]
  Ki: 2.54 µM
[2]
  pIC50: 5.6
[4]
  inhibition: 10.1%
[5]
  inhibition: 1.04%
[6]
  inhibition: 10.1%
[8]
  inhibition: 11.7%
[10]
  inhibition: 35.1%
[11]
  inhibition: 32.4%
[12]
  inhibition: 1.93%
[13]
  inhibition: -3%
[18]
  inhibition: 7.87%
[73]
  inhibition: 9.79%
[23]
  pIC50: 4.8
[24]
  pIC50: 5.1
[26]
  inhibition: 15.5%
[27]
  inhibition: 21.2%
[28]
  inhibition: 2.98%
[29]
  pIC50: 4.7
[33]
  inhibition: -2.09%
[34]
  inhibition: 4.04%
[35]
  pIC50: 5.4
[36]
  inhibition: 17.4%
[37]
  inhibition: 35.4%
[38]
  inhibition: 1.98%
[39]
  pIC50: 5.2
[40]
  inhibition: 10.8%
[42]
  inhibition: 16.9%
[43]
  inhibition: 33.1%
[47]
  inhibition: 13.8%
[48]
  inhibition: 8.66%
[49]
  inhibition: 7.44%
[50]
  inhibition: -8.18%
[51]
  inhibition: 9.8%
[53]
  inhibition: 3.86%
[58]
  inhibition: 2.71%
[60]
  inhibition: 12%
[62]
  inhibition: 21.6%
[63]
  inhibition: 14.9%
[66]
  inhibition: 28.5%
[67]
  inhibition: 44.1%
[70]
  inhibition: 86.3%
